Several values for one entry are separate records, joined by “and”; a condition that tells them apart may be missing. Identical values can stand only once. Toxic doses and inconclusive results are not listed. How the source made its calls: active means survival T/C of 150% or more; inactive means T/C below 125% in these data. Square brackets hold non-standard residues; d marks the D form. Peptide text beside a SMILES is read from it. ξ: configuration not given here. ξAbu = CCC(N)C(=O)O
Tested on: P388 leukemia ip, CD2F1 mice, survival T/C
Experiment: NCI In Vivo Anticancer Drug Screen. Data for tumor model P388 Leukemia (intraperitoneal) in CD2F1 (CDF1) mice
Settings: endpoint: median survival time, higher = longer survival
Outline: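 Mice carrying the transplanted tumor received test compound or vehicle. Survival was recorded in each group, and the value is the treated-group measurement divided by that of the vehicle-treated control group.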

[1] = dose: 12.5 mg/kg/injection, schedule: Q01DX009 (ip), vehicle: saline with Tween-80
[2] = dose: 25.0 mg/kg/injection, schedule: Q01DX009 (ip), vehicle: saline with Tween-80
[3] = dose: 50.0 mg/kg/injection, schedule: Q01DX009 (ip), vehicle: saline with Tween-80
[4] = dose: 50.0 mg/kg/injection, schedule: Q01DX009 (ip), vehicle: saline
[5] = dose: 100.0 mg/kg/injection, schedule: Q01DX009 (ip), vehicle: saline
[6] = dose: 50.0 mg/kg/injection, schedule: Q01DX005 (ip), vehicle: saline with Tween-80
[7] = dose: 100.0 mg/kg/injection, schedule: Q01DX005 (ip), vehicle: saline with Tween-80
[8] = dose: 200.0 mg/kg/injection, schedule: Q01DX005 (ip), vehicle: saline with Tween-80
[9] = dose: 50.0 mg/kg/injection, schedule: Q01DX005 (ip), vehicle: Klucel (hydroxypropylcellulose) (HPC)
[10] = dose: 100.0 mg/kg/injection, schedule: Q01DX005 (ip), vehicle: Klucel (hydroxypropylcellulose) (HPC)
[11] = dose: 200.0 mg/kg/injection, schedule: Q01DX005 (ip), vehicle: Klucel (hydroxypropylcellulose) (HPC)
[12] = dose: 50.0 mg/kg/injection, schedule: Q01DX009 (ip), vehicle: Klucel (hydroxypropylcellulose) (HPC)
[13] = dose: 100.0 mg/kg/injection, schedule: Q01DX009 (ip), vehicle: Klucel (hydroxypropylcellulose) (HPC)
[14] = dose: 200.0 mg/kg/injection, schedule: Q01DX009 (ip), vehicle: Klucel (hydroxypropylcellulose) (HPC)
[15] = dose: 60.0 mg/kg/injection, schedule: Q01DX005 (ip), vehicle: saline with Tween-80
[16] = dose: 120.0 mg/kg/injection, schedule: Q01DX005 (ip), vehicle: saline with Tween-80
[17] = dose: 240.0 mg/kg/injection, schedule: Q01DX005 (ip), vehicle: saline with Tween-80
[18] = dose: 100.0 mg/kg/injection, schedule: Q01DX009 (ip), vehicle: saline with Tween-80
[19] = dose: 200.0 mg/kg/injection, schedule: Q01DX009 (ip), vehicle: saline with Tween-80
[20] = dose: 200.0 mg/kg/injection, schedule: Q01DX009 (ip), vehicle: saline
[21] = dose: 50.0 mg/kg/injection, schedule: Q01DX005 (ip), vehicle: saline
[22] = dose: 100.0 mg/kg/injection, schedule: Q01DX005 (ip), vehicle: saline
[23] = dose: 200.0 mg/kg/injection, schedule: Q01DX005 (ip), vehicle: saline

Measured: T/C

CCCCCCCCCCCCCC1=NCCN1CCN
inactive: dose: 6.25 mg/kg/injection, schedule: Q01DX009 (ip), vehicle: saline with Tween-80 108 % of control and 94 % of control | [1] 105 % of control and 108 % of control and 109 % of control | [2] 107 % of control and 108 % of control and 111 % of control | [3] 99 % of control and 108 % of control | [4] 96 % of control | [5] 87 % of control

CCN(CC)CCSc1nnc(N)s1
inactive: dose: 50.0 mg/kg/injection, schedule: Q01DX001 (ip), vehicle: saline 103 % of control | dose: 100.0 mg/kg/injection, schedule: Q01DX001 (ip), vehicle: saline 103 % of control | dose: 200.0 mg/kg/injection, schedule: Q01DX001 (ip), vehicle: saline 99 % of control

COc1ccc(CCNC(=O)Nc2ccc(C(C)(C)C)cc2)cc1OC
inactive: [6] 101 % of control | [7] 97 % of control | [8] 101 % of control

COc1ccc2nc(C)c(C)nc2c1Cl
inactive: [9] 98 % of control | [10] 100 % of control | [11] 95 % of control

CCc1cccc(CC)c1NC(=O)C(Sc1nc(-c2cccs2)cc(C(F)(F)F)c1C#N)c1ccccc1 (configuration not stated)
inactive: [9] 94 % of control | [10] 94 % of control | [11] 89 % of control

CCn1c2ccccc2c2cc(N)c(N=Nc3ccc(N(C)C)cc3)cc21
inactive: [12] 113 % of control | [13] 105 % of control | [14] 103 % of control

CCOC(=O)C(C(=O)OCC)=C1C(=O)Nc2ccccc21
inactive: dose: 100.0 mg/kg/injection, schedule: Q04DX002 (ip), vehicle: Klucel (hydroxypropylcellulose) (HPC) 106 % of control | dose: 200.0 mg/kg/injection, schedule: Q04DX002 (ip), vehicle: Klucel (hydroxypropylcellulose) (HPC) 106 % of control | dose: 400.0 mg/kg/injection, schedule: Q04DX002 (ip), vehicle: Klucel (hydroxypropylcellulose) (HPC) 109 % of control

COC(=O)c1nnn(-c2ccc(S(N)(=O)=O)cc2)c1C(=O)c1ccc(OC)cc1
inactive: [15] 100 % of control | [16] 99 % of control | [17] 94 % of control

CCOC(=O)NC(NC(=O)OCC)c1ccccc1
inactive: dose: 100.0 mg/kg/injection, schedule: Q04DX003 (ip), vehicle: saline 100 % of control | dose: 200.0 mg/kg/injection, schedule: Q04DX003 (ip), vehicle: saline 98 % of control | dose: 400.0 mg/kg/injection, schedule: Q04DX003 (ip), vehicle: saline 92 % of control

CC1(C)CC(=O)NC(=O)N1
inactive: [6] 99 % of control | [7] 94 % of control | [8] 104 % of control

COc1ccc([B-]23OCC[N+]2(CNC(=O)C2=C(O)C4(O)C(=O)C5=C(O)c6c(O)cccc6C(C)(O)C5CC4C(N(C)C)C2=O)CCO3)cc1 (configuration not stated)
inactive: [9] 105 % of control | [10] 105 % of control | [11] 105 % of control

CCOC(=O)C1C(=O)N(C)C(=O)N1c1ccc(C)cc1 (configuration not stated)
inactive: [15] 98 % of control | [16] 87 % of control

O=C1c2ccccc2C=c2c1nc1c(O)ccc3cccc2c31
inactive: dose: 6.25 mg/kg/injection, schedule: Q01DX005 (ip), vehicle: Klucel (hydroxypropylcellulose) (HPC) 101 % of control | dose: 12.5 mg/kg/injection, schedule: Q01DX005 (ip), vehicle: Klucel (hydroxypropylcellulose) (HPC) 100 % of control | dose: 25.0 mg/kg/injection, schedule: Q01DX005 (ip), vehicle: Klucel (hydroxypropylcellulose) (HPC) 111 % of control | [9] 97 % of control

C=CCc1ccccc1C
inactive: [18] 109 % of control | [19] 101 % of control

CCCCNCCC(SS)c1ccc(Cl)cc1 (configuration not stated)
inactive: [2] 110 % of control | [3] 100 % of control | [18] 100 % of control

Cc1ccc(NC(=O)Oc2cc(C)c(Cl)cc2Br)cc1Cl
inactive: [4] 100 % of control | [5] 107 % of control | [20] 116 % of control

Nc1ncnc2c1CCc1ccccc1-2
inactive: dose: 100.0 mg/kg/injection, schedule: Q04DX002 (ip), vehicle: saline with Tween-80 107 % of control | dose: 200.0 mg/kg/injection, schedule: Q04DX002 (ip), vehicle: saline with Tween-80 112 % of control

O=[n+]1c2c(n([O-])c3ccccc31)CCC2
inactive: [3] 98 % of control | [18] 100 % of control | [19] 108 % of control

Cc1ccc(Cl)cc1NC(=O)N(C)CCO
inactive: dose: 60.0 mg/kg/injection, schedule: Q01DX005 (ip), vehicle: Klucel (hydroxypropylcellulose) (HPC) 103 % of control | dose: 120.0 mg/kg/injection, schedule: Q01DX005 (ip), vehicle: Klucel (hydroxypropylcellulose) (HPC) 103 % of control | dose: 240.0 mg/kg/injection, schedule: Q01DX005 (ip), vehicle: Klucel (hydroxypropylcellulose) (HPC) 94 % of control

C[C@@H](O)[C@@H]1NC(=O)[C@H]([C@@H](C)O)NC1=O
inactive: [21] 99 % of control | [22] 99 % of control | [23] 99 % of control

NCCCNCCSP(=O)(O)O
inactive: [1] 106 % of control | dose: 12.5 mg/kg/injection, schedule: Q01DX009 (ip), vehicle: saline 108 % of control | [2] 104 % of control | dose: 25.0 mg/kg/injection, schedule: Q01DX009 (ip), vehicle: saline 100 % of control and 104 % of control | [3] 95 % of control | [4] 103 % of control and 109 % of control | [5] 104 % of control and 87 % of control | [19] 106 % of control | [20] 112 % of control

Cc1cc(C)nc(/C=C/c2ccccc2)c1
inactive: [15] 104 % of control | [16] 105 % of control | [17] 106 % of control

Cc1cc2nc(=O)cc(CCl)n2c(=O)n1C(=O)C(O)C(O)C(O)CO (configuration not stated)
inactive: [6] 109 % of control | [7] 117 % of control | [8] 113 % of control

CCCCCCCCCCCC[As](CCCCCCCCCCCC)SCC1OC(OC(C)=O)C(OC(C)=O)C(OC(C)=O)C1OC(C)=O (configuration not stated)
inactive: [12] 111 % of control | [13] 104 % of control | [14] 105 % of control

CC(C)c1cccc(C(C)C)c1N1C(=O)C(=O)C(c2nc3ccccc3s2)C(=O)C1=O
inactive: [15] 103 % of control | [16] 102 % of control | [17] 103 % of control

Cn1cc/c(=N\N=c2/ccn(C)c3ccccc23)c2ccccc21
inactive: dose: 25.0 mg/kg/injection, schedule: Q04DX002 (ip), vehicle: saline 101 % of control | dose: 50.0 mg/kg/injection, schedule: Q04DX002 (ip), vehicle: saline 104 % of control | dose: 100.0 mg/kg/injection, schedule: Q04DX002 (ip), vehicle: saline 99 % of control and 103 % of control

CCC(N)C(=O)NCC(=O)NCC(=O)O (stereo not drawn) (H-[ξAbu]-Gly-Gly-OH)
inactive: [21] 103 % of control | [22] 103 % of control | [23] 103 % of control

CCOC(=O)c1ccc(N)[n+](C2OC(COC(=O)c3ccccc3)C(OC(=O)c3ccccc3)C2OC(=O)c2ccccc2)c1 (configuration not stated)
inactive: [6] 92 % of control | [7] 107 % of control | [8] 112 % of control

CC1=C(C/C=C(\C)CCCC(C)CCCC(C)CCCC(C)C)C(=O)c2ccccc2C1=O (configuration not stated)
inactive: dose: 12.5 mg/kg/injection, schedule: Q01DX009 (ip), vehicle: olive oil, sesame oil, peanut oil 102 % of control | dose: 25.0 mg/kg/injection, schedule: Q01DX009 (ip), vehicle: olive oil, sesame oil, peanut oil 105 % of control | dose: 50.0 mg/kg/injection, schedule: Q01DX001 (ip), vehicle: olive oil, sesame oil, peanut oil 92 % of control | dose: 50.0 mg/kg/injection, schedule: Q01DX009 (ip), vehicle: olive oil, sesame oil, peanut oil 101 % of control | dose: 100.0 mg/kg/injection, schedule: Q01DX001 (ip), vehicle: olive oil, sesame oil, peanut oil 99 % of control | dose: 100.0 mg/kg/injection, schedule: Q01DX009 (ip), vehicle: olive oil, sesame oil, peanut oil 100 % of control | dose: 200.0 mg/kg/injection, schedule: Q01DX001 (ip), vehicle: olive oil, sesame oil, peanut oil 99 % of control | dose: 200.0 mg/kg/injection, schedule: Q01DX009 (ip), vehicle: olive oil, sesame oil, peanut oil 101 % of control

COc1ccc2c(C)cc(N/N=C\c3ccnc4ccccc34)nc2c1
inactive: [9] 91 % of control | [10] 92 % of control | [11] 90 % of control

Reference: PubChem BioAssay AID330 (DTP/NCI, 2004)
